Source: patent US11051515B2, “3-acyl-benzamides and their use as herbicides” (Bayer Aktiengesellschaft, priority 2017, dated 2021)

Columns and labels:
STEME = experiment: Pre-emergence action against STEME; type: in vivo, Stellaria media; conditions: Stellaria media, 504 h; Dosage 320 g/ha, pre-emergence
In short: (§1)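 Seeds sown in sandy loam in wood-fiber pots and covered with soil. Greenhouse growth; visual damage scored after 3 weeks versus untreated controls (100% = dead, 0% = like control).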

CYPES [1] = experiment: Post-emergence action against CYPES; type: in vivo, Cyperus esculentus; conditions: Cyperus esculentus, 504 h; post-emergence, dosage 80 g/ha, visual assessment about 3 weeks after treatment vs untreated controls; read-out: Post-emergence action against CYPES (herbicidal action in percent)
In short: (§2)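 Weeds grown in sandy loam in greenhouse, treated at one-leaf stage (2–3 weeks after sowing) with WP or EC formulations sprayed as aqueous suspension/emulsion at 600 to […] water with 0.2% wetting agent. Visual rating after about 3 weeks versus untreated controls, as % herbicidal action (100% = plants dead, 0% = like control).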

SETVI [2] = experiment: Pre-emergence action against SETVI; type: in vivo, Setaria viridis; conditions: Setaria viridis, 504 h; pre-emergence, dosage 320 g/ha, scored visually after 3 weeks vs untreated controls; read-out: SETVI (Table B8, pre-emergence herbicidal activity)
In short: as §1

VIOTR = experiment: Pre-emergence action against VIOTR; type: in vivo, Viola tricolor; conditions: Viola tricolor, 504 h; Dosage 320 g/ha, pre-emergence
In short: as §1

VERPE = experiment: Post-emergence action against VERPE; type: in vivo, Veronica persica; conditions: Veronica persica, 504 h, dosage 80 g/ha
In short: as §2

PHBPU [3] = experiment: Pre-emergence action against PHBPU; type: in vivo, Pharbitis purpurea; conditions: Ipomoea purpurea, 504 h; Dosage 320 g/ha, pre-emergence
In short: as §1

ECHCG [4] = experiment: Post-emergence action against ECHCG; type: in vivo, Echinochloa crus-galli; conditions: Echinochloa crus-galli, 504 h; post-emergence, dosage 80 g/ha, visual assessment about 3 weeks after treatment vs untreated controls; read-out: Post-emergence action against ECHCG (herbicidal action in percent)
In short: as §2

ALOMY [5] = experiment: Post-emergence action against ALOMY; type: in vivo, Alopecurus myosuroides; conditions: Alopecurus myosuroides, 504 h; Dosage 80 g/ha, post-emergence
In short: as §2

MATIN [6] = experiment: Post-emergence action against MATIN; type: in vivo, Matricaria inodora; conditions: Tripleurospermum inodorum, 504 h; post-emergence, dosage 80 g/ha, visual assessment about 3 weeks after treatment vs untreated controls; read-out: Post-emergence action against MATIN (herbicidal action in percent)
In short: as §2

ECHCG [7] = experiment: Pre-emergence action against ECHCG; type: in vivo, Echinochloa crus-galli; conditions: Echinochloa crus-galli, 504 h; pre-emergence, dosage 320 g/ha, scored visually after 3 weeks vs untreated controls; read-out: Pre-emergence action against ECHCG (herbicidal activity)
In short: as §1

MATIN [8] = experiment: Pre-emergence action against MATIN; type: in vivo, Matricaria inodora; conditions: Tripleurospermum inodorum, 504 h; Dosage 320 g/ha, pre-emergence
In short: as §1

ABUTH = experiment: Post-emergence action against ABUTH; type: in vivo, Abutilon theophrasti; conditions: Abutilon theophrasti, 504 h; post-emergence, dosage 80 g/ha, visual assessment about 3 weeks after treatment vs untreated controls; read-out: Post-emergence action against ABUTH (herbicidal action in percent)
In short: as §2

ALOMY [9] = experiment: Pre-emergence action against ALOMY; type: in vivo, Alopecurus myosuroides; conditions: Alopecurus myosuroides, 504 h; dosage 320 g/ha; pre-emergence; scored visually after 3 weeks vs untreated controls; 100% = plants have died, 0% = like control plants; read-out: Pre-emergence action against ALOMY (herbicidal activity in percent)
In short: as §1

POLCO = experiment: Post-emergence action against POLCO; type: in vivo, Polygonum convolvulus; conditions: Fallopia convolvulus, 504 h; post-emergence, dosage 80 g/ha
In short: as §2

CYPES [10] = experiment: Pre-emergence action against CYPES; type: in vivo, Cyperus esculentus; conditions: Cyperus esculentus, 504 h; pre-emergence, dosage 320 g/ha, scored visually after 3 weeks vs untreated controls; read-out: Pre-emergence action against CYPES (herbicidal activity)
In short: as §1

SETVI [11] = experiment: Post-emergence action against SETVI; type: in vivo, Setaria viridis; conditions: Setaria viridis, 504 h; post-emergence, dosage 80 g/ha, visual assessment about 3 weeks after treatment vs untreated controls; read-out: Post-emergence action against SETVI (herbicidal action in percent)
In short: as §2

PHBPU [12] = experiment: Post-emergence action against PHBPU; type: in vivo, Pharbitis purpurea; conditions: Ipomoea purpurea, 504 h; post-emergence, dosage 80 g/ha
In short: as §2

AMARE [13] = experiment: Post-emergence action against AMARE; type: in vivo, Amaranthus retroflexus; conditions: Amaranthus retroflexus, 504 h; post-emergence, dosage 80 g/ha, visual assessment about 3 weeks after treatment vs untreated controls; read-out: Post-emergence action against AMARE (herbicidal action in percent)
In short: as §2

AMARE [14] = experiment: Pre-emergence action against AMARE; type: in vivo, Amaranthus retroflexus; conditions: Amaranthus retroflexus, 504 h; pre-emergence, dosage 320 g/ha, scored visually after 3 weeks vs untreated controls; read-out: Pre-emergence action against AMARE (herbicidal activity)
In short: as §1

SMILES: CCn1nnnc1NC(=O)c1ccc(C(F)(F)F)c(C(=O)C2CC2)c1C [2-18, 3-(cyclopropylcarbonyl)-N-(1-ethyl-1H-tetrazol-5-yl)-2-methyl-4-(trifluoromethyl)benzamide]
- pest or weed control at 320 g/ha (STEME): 90%
- pest or weed control at 80 g/ha (CYPES [1]): 90%
- pest or weed control at 320 g/ha (SETVI [2]): 100%
- pest or weed control at 320 g/ha (VIOTR): 100%
- pest or weed control at 80 g/ha (VERPE): 80%
- pest or weed control at 320 g/ha (PHBPU [3]): 90%
- pest or weed control at 80 g/ha (ECHCG [4]): 100%
- pest or weed control at 80 g/ha (ALOMY [5]): 100%
- pest or weed control at 80 g/ha (MATIN [6]): 100%
- pest or weed control at 320 g/ha (ECHCG [7]): 100%
- pest or weed control at 320 g/ha (MATIN [8]): 100%
- pest or weed control at 80 g/ha (ABUTH): 100%
- pest or weed control at 320 g/ha (ALOMY [9]): 100%
- pest or weed control at 80 g/ha (POLCO): 100%
- pest or weed control at 320 g/ha (CYPES [10]): 100%
- pest or weed control at 80 g/ha (SETVI [11]): 100%
- pest or weed control at 80 g/ha (PHBPU [12]): 100%
- pest or weed control at 80 g/ha (AMARE [13]): 100%
- pest or weed control at 320 g/ha (AMARE [14]): 100%

SMILES: CSc1c(C(=O)Nc2nnnn2C)ccc(C(F)(F)F)c1C(=O)C1CC1 [1-60]
- pest or weed control at 320 g/ha (STEME): 100%
- pest or weed control at 80 g/ha (CYPES [1]): 90%
- pest or weed control at 320 g/ha (SETVI [2]): 100%
- pest or weed control at 320 g/ha (VIOTR): 100%
- pest or weed control at 80 g/ha (VERPE): 100%
- pest or weed control at 320 g/ha (PHBPU [3]): 100%
- pest or weed control at 80 g/ha (ECHCG [4]): 100%
- pest or weed control at 80 g/ha (ALOMY [5]): 100%
- pest or weed control at 80 g/ha (MATIN [6]): 100%
- pest or weed control at 320 g/ha (ECHCG [7]): 100%
- pest or weed control at 320 g/ha (MATIN [8]): 100%
- pest or weed control at 80 g/ha (ABUTH): 90%
- pest or weed control at 320 g/ha (ALOMY [9]): 100%
- pest or weed control at 80 g/ha (POLCO): 100%
- pest or weed control at 320 g/ha (CYPES [10]): 100%
- pest or weed control at 80 g/ha (SETVI [11]): 100%
- pest or weed control at 80 g/ha (PHBPU [12]): 90%
- pest or weed control at 80 g/ha (AMARE [13]): 100%
- pest or weed control at 320 g/ha (AMARE [14]): 100%

SMILES: CC(=O)c1c(C(F)F)ccc(C(=O)Nc2nnnn2C)c1Cl [1-164]
- pest or weed control at 320 g/ha (STEME): 100%
- pest or weed control at 80 g/ha (CYPES [1]): 90%
- pest or weed control at 320 g/ha (SETVI [2]): 100%
- pest or weed control at 320 g/ha (VIOTR): 100%
- pest or weed control at 80 g/ha (VERPE): 100%
- pest or weed control at 320 g/ha (PHBPU [3]): 100%
- pest or weed control at 80 g/ha (ECHCG [4]): 100%
- pest or weed control at 80 g/ha (ALOMY [5]): 90%
- pest or weed control at 80 g/ha (MATIN [6]): 100%
- pest or weed control at 320 g/ha (ECHCG [7]): 100%
- pest or weed control at 320 g/ha (MATIN [8]): 100%
- pest or weed control at 80 g/ha (ABUTH): 100%
- pest or weed control at 320 g/ha (ALOMY [9]): 100%
- pest or weed control at 80 g/ha (POLCO): 90%
- pest or weed control at 320 g/ha (CYPES [10]): 100%
- pest or weed control at 80 g/ha (SETVI [11]): 90%
- pest or weed control at 80 g/ha (PHBPU [12]): 90%
- pest or weed control at 80 g/ha (AMARE [13]): 100%
- pest or weed control at 320 g/ha (AMARE [14]): 100%

SMILES: COc1c(C(=O)Nc2nnnn2C)ccc(C(F)(F)F)c1C(=O)C1CC1 [1-50]
- pest or weed control at 320 g/ha (STEME): 100%
- pest or weed control at 80 g/ha (CYPES [1]): 80%
- pest or weed control at 320 g/ha (SETVI [2]): 100%
- pest or weed control at 320 g/ha (VIOTR): 100%
- pest or weed control at 80 g/ha (VERPE): 100%
- pest or weed control at 320 g/ha (PHBPU [3]): 100%
- pest or weed control at 80 g/ha (ECHCG [4]): 90%
- pest or weed control at 80 g/ha (ALOMY [5]): 80%
- pest or weed control at 80 g/ha (MATIN [6]): 100%
- pest or weed control at 320 g/ha (ECHCG [7]): 100%
- pest or weed control at 320 g/ha (MATIN [8]): 100%
- pest or weed control at 80 g/ha (ABUTH): 100%
- pest or weed control at 320 g/ha (ALOMY [9]): 100%
- pest or weed control at 80 g/ha (POLCO): 100%
- pest or weed control at 320 g/ha (CYPES [10]): 100%
- pest or weed control at 80 g/ha (SETVI [11]): 100%
- pest or weed control at 80 g/ha (PHBPU [12]): 100%
- pest or weed control at 80 g/ha (AMARE [13]): 90%
- pest or weed control at 320 g/ha (AMARE [14]): 100%
